Experiments:
[1] = test system: scopolamine-induced memory impairment and learning disability in mice; assay: Morris water maze, scopolamine-induced memory impairment; assay type: in vivo, Swiss albino male mice; conditions: for escape latency versus scopolamine-treated mice (in words) / improvement of cognitive defects (in words): 2 mg/kg; for escape latency versus scopolamine-treated mice (in words): day 1 to 5; for Escape latency, 1st Day / Escape latency, 2nd Day / Escape latency, 3rd Day / Escape latency, 4th Day / Escape latency, 5th Day: mice, scopolamine 1.5 mg/kg i.p., donepezil and compounds 2 mg/kg p.o. with scopolamine, mean ± SD; for Escape latency, 1st Day: day 1; for Escape latency, 2nd Day: day 2; for Escape latency, 3rd Day: day 3; for Escape latency, 4th Day: day 4; for Escape latency, 5th Day: day 5; for improvement of cognitive defects (in words): compared with donepezil 2 mg/kg
Procedure: Swiss albino male mice weighing 25–30 g were purchased from LLRUVAS in Hisar, Haryana, India. […] The housing, care, and handling of the animals were done per CPCSEA requirements. The animals were exposed to the laboratory setting for seven days before the experiment.
(§1) The animals were properly acclimated before being randomly placed into 12 groups (I-XII), with six animals in each group. […] Following the delivery of the dose to the mouse, the rodent's behaviour was assessed using the traditional Morris water maze (MWM) technique.
Five days of continuous animal evaluations were conducted using the MWM model. […] The tank was placed in a dim laboratory, and using wires anchored at the pool's edge at an angle to one another, it was divided into four equal pieces (P1–P4). A stage in the targeted area (P4) of the pool with an upper face (6 × 6 cm^2) immersed in the water (1.0 cm below the surface). The location of the stage stayed the same throughout the evaluation. The animals were subjected to water pools throughout the evaluation by turning their heads towards the wall from any of the four segments, namely P1-P4, and being given 90 s to recognise the stage placed in a pool. If the animal couldn't get to the stage in 90 s, they were gently guided onto the stage under supervision. On the sixth day, one of the parameters used to determine if cognitive impairments have recovered was the time it took the mice to travel from the initial portion to locate the hidden stage in the intended part (escape latency). […]

[2] = target: T1, Acetylcholinesterase (AChE) (Mus musculus, UniProt P21836); conditions: brain THS of mice, scopolamine 1.5 mg/kg i.p.; donepezil and compounds 2 mg/kg p.o.; mean ± SD
T1 sequence (P21836 32-614): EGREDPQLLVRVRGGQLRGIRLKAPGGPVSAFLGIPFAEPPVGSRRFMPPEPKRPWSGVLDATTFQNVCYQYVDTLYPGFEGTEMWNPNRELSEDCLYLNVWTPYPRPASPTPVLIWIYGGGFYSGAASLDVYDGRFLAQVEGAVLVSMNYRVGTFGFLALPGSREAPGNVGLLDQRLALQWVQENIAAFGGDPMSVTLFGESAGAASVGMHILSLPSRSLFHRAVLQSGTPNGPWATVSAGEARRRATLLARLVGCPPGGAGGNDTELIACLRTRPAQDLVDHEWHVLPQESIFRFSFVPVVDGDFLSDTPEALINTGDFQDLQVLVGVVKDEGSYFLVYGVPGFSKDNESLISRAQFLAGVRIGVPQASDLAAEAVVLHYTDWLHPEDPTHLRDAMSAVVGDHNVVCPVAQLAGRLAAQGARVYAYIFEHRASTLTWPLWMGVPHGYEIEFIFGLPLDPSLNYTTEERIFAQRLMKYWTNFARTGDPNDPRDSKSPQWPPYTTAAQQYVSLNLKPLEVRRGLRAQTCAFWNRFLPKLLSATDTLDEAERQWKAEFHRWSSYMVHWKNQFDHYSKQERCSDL
Procedure: as §1
(§2) After five days of behavioral assessment, the mice's brains were removed and homogenized (blended) in chilled phosphate buffer (pH 7.4) at a concentration of 10% w/v (weight per volume). The homogenates were then centrifuged (spun at high speed) for 20 min at 4 °C to separate the supernatant (liquid) from the pellet (solid material). The supernatant was then collected to measure biological substances.
Employing Ellman et al., methodology, AChE levels were quantified in tissue homogenate supernatant (THS) to evaluate cholinergic abnormalities.

[3] = test system: malondialdehyde (MDA); assay: Lipid peroxidation (LPO) assay, MDA in brain homogenate; assay type: in vivo; conditions: brain THS of mice, scopolamine 1.5 mg/kg i.p.; donepezil and compounds 2 mg/kg p.o.; mean ± SD
Procedure: as §1, §2
The amount of malondialdehyde (MDA), a marker of lipid peroxidation (LPO), was measured using a method described by Wills[10]. Tris–HCl buffer and THS were mixed and incubated at 37 °C for 2 h with 10% trichloroacetic acid. After incubation, the mixture was centrifuged again (at 1000 rpm for 10 min). […] After cooling, 1.0 mL of double-distilled water was added, and the absorbance was measured at 532 nm.

[4] = test system: nitrite; assay: Nitrite assay (Greiss reagent) in brain homogenate; assay type: in vivo; conditions: brain THS of mice, scopolamine 1.5 mg/kg i.p.; donepezil and compounds 2 mg/kg p.o.; mean ± SD
Procedure: as §1, §2
The amount of nitric oxide in THS was calculated using Greiss' reagent, a mixture of chemicals that reacts with nitric oxide to produce a colored product. The absorbance of the colored product was computed at 540 nm and the concentration of nitrite was determined using a standard curve of known nitrite concentrations.

[5] = test system: Reduced glutathione (GSH); assay: Reduced glutathione (GSH) assay in brain homogenate; assay type: in vivo; conditions: brain THS of mice, scopolamine 1.5 mg/kg i.p.; donepezil and compounds 2 mg/kg p.o.; mean ± SD
Procedure: as §1, §2
The method described by Jollow et al. was used to measure glutathione (GSH) levels. First, 1.0 mL of 4% sulfosalicylic acid was added to 1.0 mL of tissue homogenate to precipitate the GSH. The mixture was then incubated at 4 °C for 1 h and centrifuged at 1200 rpm for 10 min at 4 °C. The supernatant was collected and diluted to a final volume of 3.0 mL with phosphate buffer and Ellman's reagent. […]

[6] = test system: Superoxide dismutase (SOD); assay: Superoxide dismutase (SOD) assay in brain homogenate; assay type: in vivo; conditions: brain THS of mice, scopolamine 1.5 mg/kg i.p.; donepezil and compounds 2 mg/kg p.o.; mean ± SD
Procedure: as §1, §2
The samples contained EDTA, sodium carbonate, and NBT, and the assay was performed using Kono's method. Each sample tube contained 2.0 mL of this mixture, as well as THS and hydroxylamine. The absorbance of the mixture was measured at 560 nm every 30 or 60 s for 2 min to track changes in absorbance.

[7] = test system: Catalase; assay: Catalase assay in brain homogenate; assay type: in vivo; conditions: brain THS of mice, scopolamine 1.5 mg/kg i.p.; donepezil and compounds 2 mg/kg p.o.; mean ± SD
Procedure: as §1, §2
Employing the methodology of Luck et al., catalase activity was quantified. The sample contained H2O2 (1.0 mL, 0.019 M), phosphate buffer (1.95 mL, 0.05 M, pH 7.0), and THS (0.05 mL). The optical density was computed at a wavelength of 240 nm. The findings were shown as μM H2O2 decomposition/min/mg protein[13].

2-((1-benzylpiperidin-4-yl)methyl)-4-chloro-6,7-dimethoxyquinoline [Compound 16]
escape latency versus scopolamine-treated mice (in words) [1]: significantly reduced escape latency
Escape latency, 1st Day [1]: 76 ± 3.3 s
Escape latency, 2nd Day [1]: 30.8 ± 0.75 s
Escape latency, 3rd Day [1]: 21 ± 0.81 s
Escape latency, 4th Day [1]: 16 ± 1.54 s
Escape latency, 5th Day [1]: 5.33 ± 1.24 s
μM of AChE/min/mg protein [2]: 0.01 ± 0.01 μM of AChE/min/mg protein
LPO assay, MDA levels [3]: 8.52 ± 0.05 nM/mg of tissue
Nitrite assay, nitrite conc. [4]: 11.74 ± 0.03 μM/mg protein
GSH assay, μmol of GSH/mg Protein [5]: 0.11 ± 0.002 μmol of GSH/mg Protein
SOD assay, SOD units/mg protein [6]: 3.07 ± 0.02 SOD units/mg protein
Catalase assay, Catalase activity [7]: 4.66 ± 0.04 min⁻¹

6-chloro-N-(1-(1-(3,4-dimethoxybenzyl)-2-oxopyrrolidin-3-yl)piperidin-4-yl)pyridine-3-sulfonamide [Compound 9]
improvement of cognitive defects (in words) [1]: most potent
escape latency versus scopolamine-treated mice (in words) [1]: significantly reduced escape latency
Escape latency, 1st Day [1]: 80.5 ± 0.84 s
Escape latency, 2nd Day [1]: 40.83 ± 0.98 s
Escape latency, 3rd Day [1]: 23.5 ± 2.92 s
Escape latency, 4th Day [1]: 15.83 ± 3.37 s
Escape latency, 5th Day [1]: 2.66 ± 0.68 s
μM of AChE/min/mg protein [2]: 0.01 ± 0.01 μM of AChE/min/mg protein
LPO assay, MDA levels [3]: 8.48 ± 0.02 nM/mg of tissue
Nitrite assay, nitrite conc. [4]: 10.42 ± 0.04 μM/mg protein
GSH assay, μmol of GSH/mg Protein [5]: 0.11 ± 0.002 μmol of GSH/mg Protein
SOD assay, SOD units/mg protein [6]: 4.09 ± 0.02 SOD units/mg protein
Catalase assay, Catalase activity [7]: 6.23 ± 0.02 min⁻¹

2-(1-benzylpiperidin-4-yl)-6,7-dimethoxy-4-(4-methoxyphenyl)quinoline [Compound 18]
improvement of cognitive defects (in words) [1]: most potent
escape latency versus scopolamine-treated mice (in words) [1]: significantly reduced escape latency
Escape latency, 2nd Day [1]: 44.83 ± 3.125 s
Escape latency, 3rd Day [1]: 24.66 ± 1.24 s
Escape latency, 4th Day [1]: 13.83 ± 2.63 s
Escape latency, 5th Day [1]: 3.33 ± 1.37 s
μM of AChE/min/mg protein [2]: 0.01 ± 0.01 μM of AChE/min/mg protein
LPO assay, MDA levels [3]: 8.52 ± 0.02 nM/mg of tissue
Nitrite assay, nitrite conc. [4]: 10.51 ± 0.03 μM/mg protein
GSH assay, μmol of GSH/mg Protein [5]: 0.11 ± 0.001 μmol of GSH/mg Protein
SOD assay, SOD units/mg protein [6]: 4.08 ± 0.02 SOD units/mg protein
Catalase assay, Catalase activity [7]: 5.53 ± 0.01 min⁻¹
